≈ marks a conversion by molar mass, not a printed value. Where two headings read alike, the source gives them in different places.
Columns and labels:
B. dermatitidis = experiment: Susceptibility of clinical dimorphic fungi (MIC); format: cell-based; settings: B. dermatitidis (n = 30)
H. capsulatum = experiment: microbe, parasite or virus in culture; format: cell-based
C. albicans SC5314 = experiment: MIC versus reference Candida strains (broth micro dilution); format: cell-based
[1] = Stability of diyne salts on storage (HPLC content); format: physicochemical; settings: crystalline solid
Procedure: Potassium (Z)-14-(furan-2-yl)tetradeca-9-en-11,13-diynoate was kept as a crystalline solid for 6 month at 2-8° C. The content of potassium (Z)-14-(furan-2-yl)tetradeca-9-en-11,13-diynoate was determined by HPLC against a reference sample kept at −20° C. After 6 months of storage characteristics such as colour, water content, XRPD profile, of the solid had not changed and it was still a beige solid. […] Also no change in the impurity profile was observed after 6 months storage.
Potassium (Z)-14-(furan-2-yl)tetradeca-9-en-11,13-diynoate was also kept as a crystalline solid for 6 month at 25° C., 60% RH. Analysis was performed as described above. After 6 months of storage characteristics of the solid has not changed and it was still a beige solid. […] Also no change in the impurity profile was observed after 6 months storage.
Potassium (Z)-14-(furan-2-yl)tetradeca-9-en-11,13-diynoate was also kept as a crystalline solid for 6 month at 40° C., 75% RH. Analysis was performed as described above. After 6 months of storage the appearance of the solid had changed to a brown solid. Furthermore, a decrease in the content of potassium (Z)-14-(furan-2-yl)tetradeca-9-en-11,13-diynoate to 96% was observed as analysed by HPLC.
Sodium (Z)-14-(furan-2-yl)tetradeca-9-en-11,13-diynoate was kept as an amorphous solid at room temperature. […] Furthermore the salt was dissolved in an aqueous solution and already after few days the content of sodium (Z)-14-(furan-2-yl)tetradeca-9-en-11,13-diynoate was reduced by 35%, thus proving strong instability of the amorphous salt form.

C. albicans ATCC-24433 = experiment: MIC versus reference Candida strains (broth micro dilution); design: MICs (100% inhibition): unit not given beside the values; settings: for MIC: Candida albicans
C. albicans ATCC-90028 = experiment: as above; design: MICs (100% inhibition): unit not given beside the values; settings: for MIC: Candida albicans
C. glabrata ATCC-90030 = experiment: as above; design: MICs (100% inhibition): unit not given beside the values; settings: for MIC: Nakaseomyces glabratus
C. krusei ATCC-6258 = experiment: as above; design: MICs (100% inhibition): unit not given beside the values; settings: for MIC: Pichia kudriavzevii
[2] = tested on: C. parapsilosis ATCC-22019; experiment: as above; design: MICs (100% inhibition): unit not given beside the values; settings: for MIC: Lodderomyces parapsilosis
[3] = tested on: C. parapsilosis ATCC-90018; experiment: as above; design: MICs (100% inhibition): unit not given beside the values; settings: for MIC: Lodderomyces parapsilosis
C. tropicalis ATCC-750 = experiment: as above; design: MICs (100% inhibition): unit not given beside the values; settings: for MIC: Candida tropicalis
Microsporum canis = experiment: In vitro antifungal activity vs. dermatophytes (MIC/MFC); format: cell-based; settings: Microsporum canis (n = 15)
[4] = tested on: T. rubrum, Terbinafine resistant isolates; experiment: as above; format: cell-based
C. guilliermondii = experiment: In vitro antifungal activity vs. yeasts (MIC/MFC); format: cell-based; settings: Meyerozyma guilliermondii, C. guilliermondii (n = 1)
all dermatophyte strains = experiment: MIC and MFC range over all dermatophyte strains tested; format: cell-based, dermatophytes; settings: Table 14 strains
[5] = tested on: Staphylococcus aureus 29213; experiment: In vitro Antibacterial Activity; format: cell-based; settings: read-out: MIC90
[6] = tested on: Enterobacter faecalis 29212; experiment: In vitro Antibacterial Activity; format: cell-based
Escherichia coli 700 = experiment: In vitro Antibacterial Activity; format: cell-based
(1,3)β-Glucan Synthase = experiment: Inhibition of fungal cell wall synthesis enzymes; format: biochemical
Description: (§1) Specific inhibitors of each enzyme served as positive controls (Cilofungin, a β-glucan synthase inhibitor and nikkomycin Z, a chitin synthase inhibitor).

Chitin Synthase = experiment: Inhibition of fungal cell wall synthesis enzymes; format: biochemical
Description: as §1

ergosterol biosynthesis = experiment: 13C-acetate incorporation into ergosterol; format: cell-based, Candida albicans; settings: drug at about its MIC, added after the first 15 minutes

For `O=C([O-])CCCCCCC/C=C\C#CC#Cc1ccco1.[K+]` [Compound IV″, potassium (Z)-14-(furan-2-yl)tetradeca-9-en-11,13-diynoate], the “MIC90/MIC range 48 h” value (B. dermatitidis; MIC90, 48 h) was 30 ng/mL, the MIC90 (B. dermatitidis; Blastomyces dermatitidis, CLSI M38-A2, 50% growth reduction, MIC read at 96 h) was 30 ng/mL and the “MIC90/MIC range 48 h” value (H. capsulatum; H. capsulatum (n = 20), MIC90, 48 h) was 30 ng/mL. The MIC90 (H. capsulatum; Histoplasma capsulatum, 120 h) was 30 ng/mL, the MIC (C. albicans SC5314) was 1.25 ng/mL and the “content after storage (HPLC)” value ([1]; 6 month at 2-8° C.) was “had not significantly changed”. The “content after storage (HPLC)” value ([1]; 6 month at 25° C., 60% RH) was “had not changed significantly”, the “content after storage (HPLC), decrease to” value ([1]; 6 month at 40° C., 75% RH) was 96% and the MIC breakpoints (C. albicans ATCC-24433; C. albicans ATCC 24433, CLSI M27-A3, growth inhibition of 100%, 35° C., 24 hrs) was 2.5 ng/mL. For the same compound, the “MICs (100% inhibition)” value (C. albicans ATCC-24433; C. albicans ATCC 24433, NCCLS M27A, 35° C., 24 hrs) was 2.5, the MIC (C. albicans ATCC-24433; ATCC24433, read-out: minimal inhibitory concentrations) was 2.5 ng/mL and the MIC breakpoints (C. albicans ATCC-90028; C. albicans ATCC 90028, CLSI M27-A3, growth inhibition of 100%, 35° C., 24 hrs) was 5 ng/mL. The “MICs (100% inhibition)” value (C. albicans ATCC-90028; C. albicans ATCC 90028, NCCLS M27A, 35° C., 24 hrs) was 5, the MIC (C. albicans ATCC-90028; ATCC90028, read-out: minimal inhibitory concentrations) was 5 ng/mL and the MIC breakpoints (C. glabrata ATCC-90030; C. glabrata ATCC 90030, CLSI M27-A3, growth inhibition of 100%, 35° C., 24 hrs) was 60 ng/mL. The “MICs (100% inhibition)” value (C. glabrata ATCC-90030; C. glabrata ATCC 90030, NCCLS M27A, 35° C., 24 hrs) was 60, the MIC (C. glabrata ATCC-90030; ATCC90030) was 20 ng/mL and the MIC (C. glabrata ATCC-90030; ATCC90030, read-out: minimal inhibitory concentrations) was 60 ng/mL. For the same compound, the MIC breakpoints (C. krusei ATCC-6258; C. krusei ATCC 6258, CLSI M27-A3, growth inhibition of 100%, 35° C., 24 hrs) was 60 ng/mL, the “MICs (100% inhibition)” value (C. krusei ATCC-6258; C. krusei ATCC 6258, NCCLS M27A, 35° C., 24 hrs) was 60 and the MIC (C. krusei ATCC-6258; ATCC6258) was 20 ng/mL. For the same compound, the MIC (C. krusei ATCC-6258; ATCC6258, read-out: minimal inhibitory concentrations) was 60 ng/mL, the MIC breakpoints ([2]; C. parapsilosis ATCC 22019, CLSI M27-A3, growth inhibition of 100%, 35° C., 24 hrs) was 10240 ng/mL and the “MICs (100% inhibition)” value ([2]; C. parapsilosis ATCC 22019, NCCLS M27A, 35° C., 24 hrs) was 10240. For the same compound, the MIC ([2]; ATCC22019, read-out: minimal inhibitory concentrations) was 10200 ng/mL, the MIC breakpoints ([3]; C. parapsilosis ATCC 90018, CLSI M27-A3, growth inhibition of 100%, 35° C., 24 hrs) was >10240 ng/mL and the “MICs (100% inhibition)” value ([3]; C. parapsilosis ATCC 90018, NCCLS M27A, 35° C., 24 hrs) was >10240. The MIC ([3]; ATCC90018, read-out: minimal inhibitory concentrations) was > 10200 ng/mL, the MIC breakpoints (C. tropicalis ATCC-750; C. tropicalis ATCC 750, CLSI M27-A3, growth inhibition of 100%, 35° C., 24 hrs) was 7.5 ng/mL and the “MICs (100% inhibition)” value (C. tropicalis ATCC-750; C. tropicalis ATCC 750, NCCLS M27A, 35° C., 24 hrs) was 7.5. For the same compound, the MIC (C. tropicalis ATCC-750; ATCC750) was 5 ng/mL and the MIC (C. tropicalis ATCC-750; ATCC750, read-out: minimal inhibitory concentrations) was 7.5 ng/mL.
With `O=C(O)CCCCCCC/C=C\C#CC#Cc1ccco1` [Compound III″] the MIC (Microsporum canis; 96 h, 35° C., 4 days) was < 0.06 ng/mL, the MFC (Microsporum canis) was 0.5 ng/mL (≈ 1.76 nM) and the “MIC90/MIC range 48 h” value (Microsporum canis; MIC90, 48 h) was <0.06 ng/mL. For the same compound, the “MIC90/MIC range 48 h” value ([4]; T. rubrum, Terbinafine resistant isolates (n = 9), 48 h) was <0.06 ng/mL, the MIC ([4]; Trichophyton rubrum, 96 h, T. rubrum (TERB-resistant) (n = 9), 35° C., 4 days) was < 0.06 ng/mL and the MFC ([4]; Trichophyton rubrum, T. rubrum (TERB-resistant) (n = 9)) was < 0.06 ng/mL. For the same compound, the MIC (C. albicans SC5314) was 0.5 ng/mL (≈ 1.76 nM), the MFC (C. guilliermondii) was 0.5 ng/mL (≈ 1.76 nM) and the MIC (C. guilliermondii; 90% inhibition endpoint) was < 0.06 ng/mL. The “MFC range against dermatophytes” value (all dermatophyte strains) was <0.06 to 16000 ng/mL, the “MIC range against all dermatophyte strains” value (all dermatophyte strains) was <0.06 to 1000 ng/mL and the MIC90 [5] was 50000 ng/mL (≈ 176000 nM). For the same compound, the MIC90 [6] was 12500 ng/mL (≈ 44000 nM), the MIC90 (Escherichia coli 700) was > 200000 ng/mL and the “% Inhibition, (1,3)β-Glucan Synthase” value ((1,3)β-Glucan Synthase; 10 μg/ml) was 0%. For the same compound, the “% Inhibition, (1,3)β-Glucan Synthase” value ((1,3)β-Glucan Synthase; 100 μg/ml) was 73%, the “% Inhibition, (1,3)β-Glucan Synthase” value ((1,3)β-Glucan Synthase; 400 μg/ml) was 90% and the “% Inhibition, Chitin Synthase” value (Chitin Synthase; 10 μg/ml) was 16%. The “% Inhibition, Chitin Synthase” value (Chitin Synthase; 100 μg/ml) was 85%, the “% Inhibition, Chitin Synthase” value (Chitin Synthase; 500 μg/ml) was 97% and the “concentrations at which the enzymes were inhibited” value (Chitin Synthase; chitin synthase and β-glucan synthase) was > 100 µg/mL. For the same compound, the “net biosynthesis of ergosterol (13C-acetate incorporation)” value (ergosterol biosynthesis) was “did not significantly inhibit the net biosynthesis of ergosterol”, the MIC (C. albicans ATCC-24433; ATCC24433) was 1.25 ng/mL (≈ 4.4 nM) and the MIC (C. albicans ATCC-90028; ATCC90028) was 1.25 ng/mL (≈ 4.4 nM). For the same compound, the MIC (C. glabrata ATCC-90030; ATCC90030) was 10 ng/mL (≈ 35.2 nM), the MIC (C. krusei ATCC-6258; ATCC6258) was 10 ng/mL (≈ 35.2 nM) and the MIC ([2]; ATCC22019) was 2560 ng/mL (≈ 9000 nM). It also gave an MIC ([3]; ATCC90018) of 2560 ng/mL (≈ 9000 nM) and an MIC (C. tropicalis ATCC-750; ATCC750) of 2.5 ng/mL (≈ 8.79 nM).

Reference: patent US8722910B2, “Diyne compositions” (Evolva AG, priority 2009, dated 2014)
